# Laboratory results published in PubChem BioAssay AID504726 (Broad Institute, 2011).
# Active and inactive are the calls of the source.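 The calls were made as follows: active = fitted half-maximal concentration for a cytotoxic signal drop no higher than ten times the top valid dose tested; inconclusive = flat curve between -70 and -30 percent, or an unreliable fit; inactive = flat within 30 percent, signal rise, or potency beyond limit.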
# Assay: HeLa cell cytotoxicity, dose response, cytotoxicity control, 24 h, cherry-picked samples (AID 504726);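 also: 0% = DMSO neutral controls and -100% = mitoxantrone positive controls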
# Conditions: HeLa viability, CellTiter-Glo ATP luminescence, 24 h; at 35 µM (top of the series)
row,SMILES,"activity change, negative = cytotoxicity"
1,CCc1ccc[n+](-c2[nH]c(=O)sc2/C=N/NC([S-])=Nc2ccccc2)c1,-14.2% (inactive)
2,COc1ccc(CNC(=O)C2CCC(CNC(=O)[C@@H]3Cc4ccccc4CN3)CC2)cc1 (some centres undefined),-2.6% (inactive)
3,Cn1c(=O)oc2cc(S(=O)(=O)CCC(=O)N3CCN(c4ccccc4F)CC3)ccc21,-1.08% (inactive)
4,O=C1c2cccc3c(O)ccc(c23)C(=O)N1c1ccc(Cl)cc1,-8.83% (inactive)
5,COc1ccc(NS(=O)(=O)c2cccc3ccccc23)cc1,-7.48% (inactive)
6,CC(/C=C1\SC(=S)N(CCCC(=O)Nc2ccc(C(=O)O)cc2)C1=O)=C\c1ccccc1,3.31% (inactive)
7,O=C(N/N=C/c1ccc(N2CCOCC2)cc1)c1ccccn1,-14.2% (inactive)
8,CSC(=NS(=O)(=O)c1ccc(N)cc1)NS(=O)(=O)c1cccs1,-2.85% (inactive)
9,COC(=O)C[n+]1cccc2ccccc21,-6.11% (inactive)
10,O=[N+]([O-])c1cccc(CSc2nc3ccccc3[nH]2)c1,-8.29% (inactive)
11,CC(=O)O[C@@H]1[C@@H](OC(C)=O)[C@H](n2ccc3cc([N+](=O)[O-])ccc32)OC[C@@H]1OC(C)=O,-3.68% (inactive)
12,O=C(O)C1(c2ccccc2)CCN(S(=O)(=O)c2ccc(Cl)s2)CC1,-1.76% (inactive)
13,CC(C)c1ccc(CNc2ccc([N+](=O)[O-])cn2)cc1,-10.7% (inactive)
14,COc1ccc(C(=O)c2ccsc2N)cc1,2.38% (inactive)
15,COc1ccc(-c2cc(C(=O)N(C)CCc3ccc(OC)c(OC)c3)c3ccccc3n2)cc1,-7.16% (inactive)
16,COC(=O)C1=COC(C)C2CN3CCc4c([nH]c5ccccc45)C3CC12 (centres undefined),-14.1% (inactive)
17,FC(F)(F)c1nnc(-c2ccccc2)nc1N1CCCC1,-13.4% (inactive)
18,NC(=O)C1(N2CCCCC2)CCN(Cc2ccc(Br)cc2)CC1,-2.98% (inactive)
19,Cc1ccc(NC(=O)CN2C(=O)N/C(=C/c3cccn3-c3ccc(C(=O)O)cc3)C2=O)cc1,-4.45% (inactive)
20,CN1C(=O)NC(c2ccccc2[N+](=O)[O-])C2=C1CCCC2=O (centres undefined),-9.55% (inactive)
21,CCC(=O)Oc1ccc2c(c1)O/C(=C\c1ccco1)C2=O,4.02% (inactive)

row,SMILES,"activity change, negative = cytotoxicity"
1,COC(=O)c1ccccc1OCC(=O)N1CCN(c2ccc(Cl)cc2)CC1,-6.81% (inactive)
2,COc1cc(OC)cc(C(=O)NC2CC3CCC(C2)N3C)c1 (centres undefined),3.6% (inactive)
3,Cc1cccnc1NC1(C(F)(F)F)N=C2SCCN2C1=O (centres undefined),-2.93% (inactive)
4,Cc1cnc(NC(=O)Cc2c[nH]c3ccccc23)s1,-3.77% (inactive)
5,CN(c1ccc(OCC(=O)OCC(=O)c2c(N)n(C)c(=O)n(C)c2=O)cc1)S(=O)(=O)c1ccc2ccccc2c1,3.95% (inactive)
6,C/C(=N/NC(=O)c1cc(O)c(O)c(O)c1)c1ccc([N+](=O)[O-])cc1,-1.35% (inactive)
7,CC(=O)N(C(C)=O)N1C(=O)c2cccc3c(N4CCOCC4)ccc(c23)C1=O,-2.78% (inactive)
8,O=C1c2ccccc2C(Nc2ccc3c(c2)OCCO3)N1Cc1ccc2c(c1)OCO2 (centres undefined),-13.3% (inactive)
9,CN(N=Nc1ccc([N+](=O)[O-])cc1)c1ccccc1,-18.3% (inactive)
10,COc1ccc(OC)c(N2C(=O)NC(=O)/C(=C\c3ccc([N+](=O)[O-])s3)C2=O)c1,-3.62% (inactive)
11,CSc1ccc(/C=N/Nc2cccc(C(=O)O)c2)cc1,-13% (inactive)
12,O=C(O)C1Nc2c(O)cc(Cl)c([N+](=O)[O-])c2C2C=CCC12 (centres undefined),-21.5% (inactive)
13,Nc1nnc(CC(=O)N/N=C/c2cc([N+](=O)[O-])cc(Br)c2O)s1,-8.04% (inactive)
14,Cc1ccc(-c2nnc(-c3ccc(NC(=O)c4ccco4)cc3)o2)cc1,-2.7% (inactive)
15,Nc1ccc2nonc2c1[N+](=O)[O-],2.26% (inactive)
16,Nc1cccc(N2C(=O)c3cccc4c(N)ccc(c34)C2=O)c1,6.74% (inactive)
17,CC(C)CC(=O)Nc1ccc(S(=O)(=O)N2CC3CC(C2)c2cccc(=O)n2C3)cc1 (centres undefined),1.91% (inactive)
18,CC(Cc1ccccc1)NC(=O)NC(C)Cc1ccccc1 (centres undefined),-7.16% (inactive)
19,COC(=O)c1cc(N2CCN(C)CC2)nc2ccccc12,-6.94% (inactive)
20,Cc1[nH][nH]c(=O)c1C(c1ccc(-c2ccc(Cl)c(C(=O)O)c2)o1)c1c(C)[nH][nH]c1=O,-3.88% (inactive)
21,CC1=NCCc2c1[nH]c1cc(O)ccc21,-12.7% (inactive)

row,SMILES,"activity change, negative = cytotoxicity"
1,COc1ccc(N=C2SC(CC(=O)Nc3ccccc3)C(=O)N2Cc2ccco2)cc1 (centres undefined),-17.3% (inactive)
2,Oc1ccc2ccc3cccc[n+]3c2c1,-13.8% (inactive)
3,COc1cccc(/C=N/NC(=O)C(=O)NCc2cccnc2)c1O,-7.2% (inactive)
4,N#CC1=C(N)Oc2ccc3ccc(O)cc3c2C1c1ccsc1 (centres undefined),5.49% (inactive)
5,CN(C)/C=N/c1nc2nccc(-c3ccc(Cl)cc3)n2n1,-3.67% (inactive)
6,CN1CCN(CCCNC(=O)c2cc3c(-c4ccc(Cl)cc4)nn(C)c3s2)CC1,-18.2% (inactive)
7,Nc1c(/C=C2/C=CC(=O)C(O)=C2)c(=O)nc2sc(CC(=O)N3CCCC3)nn12,-5.49% (inactive)
8,CC(C)(CS(=O)(=O)[O-])NC(=O)CC[N+](C)(C)CCO,2.35% (inactive)
9,Nc1nc(SCC(=O)N2CCCCC2)[nH]c(=O)c1NC(=O)c1cccs1,-0.747% (inactive)
10,Cc1nn(CC(=O)c2ccc(Br)s2)c(C)c1[N+](=O)[O-],-2.98% (inactive)
11,CCn1c(O)c(N=Nc2cccc(S(=O)(=O)N3CCOCC3)c2)c(=O)n(CC)c1=S,7.72% (inactive)
12,Cc1cccc(NC(=O)CN2C(=O)NC(C)(c3ccc4ccccc4c3)C2=O)n1 (centres undefined),-4.54% (inactive)
13,C=CCNC(=S)N1CCN(S(=O)(=O)c2ccc(C)cc2)CC1,-6.85% (inactive)
14,Cc1ccccc1C1=C/C(=C(\SS/C(C(=O)c2ccc(OCC(=O)O)c(Cl)c2Cl)=C2\C=C(c3ccccc3C)SS2)C(=O)c2ccc(OCC(=O)O)c(Cl)c2Cl)SS1,-8.33% (inactive)
15,Cc1nn(Cc2c(F)c(F)c(F)c(F)c2F)c(C)c1NC(=O)c1ccnn1C,-4.82% (inactive)
16,Cn1cc(/C=C2\C(=O)NC(=O)N(c3ccccc3)C2=O)c2ccccc21,-26.5% (inactive)
17,CN(C)C(=O)c1ccc(NC(=O)COC(=O)C2(c3ccccc3)CCCC2)cc1,-4.12% (inactive)
18,COc1cccc(-c2cc(C(=O)N3CCN(S(=O)(=O)c4ccccc4)CC3)[nH]n2)c1,-17.3% (inactive)
19,O=C1C=C(c2ccoc2)N2CCC[C@H]2C1,-3.65% (inactive)
20,O=C(O)c1ccc2c(c1)C(=O)/C(=C\c1ccco1)C2=O,3.44% (inactive)
21,Cc1noc(C)c1-c1nc(CSc2ccccc2)no1,-16.7% (inactive)

row,SMILES,"activity change, negative = cytotoxicity"
1,CCc1ccc(N2CC(C(=O)OCC(=O)N(CC)c3c(N)n(Cc4ccccc4)c(=O)[nH]c3=O)CC2=O)cc1 (centres undefined),-9.97% (inactive)
2,O=C(O)COc1ccc2c(c1)O/C(=C\c1ccco1)C2=O,-1.96% (inactive)
3,CC(=O)Nc1ccc(S(=O)(=O)Nc2nc3ccccc3nc2Nc2ccc(C(=O)O)c(O)c2)cc1,-13.1% (inactive)
4,O=C(NC1(O)C(=O)c2ccccc2C1=O)c1c(Cl)cccc1Cl,-4.52% (inactive)
5,CC(C)c1ccc(NC(=O)Cn2c(=O)oc3cccnc32)cc1,-7.38% (inactive)
6,Cc1ccc(OCC(=O)NC(=S)Nc2cccc(NC(=O)c3ccc(Cl)cc3Cl)c2)cc1,-4.71% (inactive)
7,O=C(O)CN1C(=O)/C(=C\c2cc(Br)ccc2OCc2ccc([N+](=O)[O-])cc2)SC1=S,-1.76% (inactive)
8,O=c1cc(-c2ccc(O)c(O)c2)oc2cc(O[C@@H]3O[C@H](CO)[C@@H](O)[C@H](O)[C@H]3O)cc(O)c12,-8.55% (inactive)
9,O=S(=O)(NCc1cccnc1)c1ccc(Cl)s1,4.67% (inactive)
10,O=C(O)CCN1C(=O)/C(=C\c2ccc(-c3nc4ccccc4s3)o2)SC1=S,1.33% (inactive)
11,Cc1nc(Cl)c2c(n1)NC1=C(O2)C(=O)CCC1,-16.2% (inactive)
12,O=C(OCCN1C(=O)c2cccc3c(N4CCOCC4)ccc(c23)C1=O)c1ccc(Cl)cc1,-11.7% (inactive)
13,Cc1oc2cc(O)ccc2c(=O)c1-c1nncn1-c1ccccc1,3.87% (inactive)
14,Cc1nc2ccccc2n2c(O)c(CC(=O)O)cc12,-13.5% (inactive)
15,Cc1cccc(-c2nsc(SCC(=O)Nc3nccs3)n2)c1,-0.205% (inactive)
16,O=C1c2cccc3c(O)ccc(c23)C(=O)N1Cc1ccco1,8.13% (inactive)
17,CC(=O)Oc1ccc2c(c1)Oc1cc(OC(C)=O)ccc1C21OC(=O)c2ccccc21,-1.71% (inactive)
18,CC1=NN(c2cccc(C(=O)O)c2)C(=O)/C1=C\C=C\c1ccco1,-5.55% (inactive)
19,COc1ccc(-c2cnc3n2CCCCC3)cc1,0.279% (inactive)
20,CCN(CC)S(=O)(=O)N1CCN(S(=O)(=O)N2CCOCC2)CC1,1.89% (inactive)
21,CCN(Cc1ccccc1)C(=O)c1cccc(S(=O)(=O)N2CCN(Cc3ccccc3)CC2)c1,1.39% (inactive)
